In ChEMBL document CHEMBL1135700, “Design, synthesis and activity of ascorbic acid prodrugs of nipecotic, kynurenic and diclophenamic acids, liable to increase neurotropic activity” (2002):

Test system: Mus musculus
Assay: Compound administered at a concentration of 0.75 mmol/kg intraperitoneally was evaluated for its effect on pentylenetetrazole induced convulsions in mice, measured as latency to convulsion

For `C1CCc2nnnn2CC1.O=C1O[C@H]([C@@H](O)COC(=O)C2CCCNC2)C(O)=C1O` (stereo partly specified), the Latency was 922 s.
